From patent US10828315B2 (Madrigal Pharmaceuticals, Inc., priority 2013, dated 2020)

Test: Mouse plasma stability protocol, up to 1 h (Examples 16-18)
Conditions: for % Remaining (1 h): % Remaining of parent after 1 h incubation in mouse plasma at 37° C. (10 μM)

| Structure (SMILES) | % Remaining (1 h) [%] | % Remaining (1 h, 37° C.) (mouse plasma, 1 h, 37° C.) [%] |
| --- | --- | --- |
| CCNC(=O)c1nnc(-c2cc(C(C)C)c(O)cc2O)n1-c1ccc(C(=O)N2CCN(c3cc(C)c(OC(=O)Nc4cccc5c4C(=O)N(C4CCC(=O)NC4=O)C5=O)c(C)c3)CC2)cc1 (centres unmarked) [SDC-TRAP-0400, 4-(4-(4-(3-(2,4-dihydroxy-5-isopropylphenyl)-5-(ethylcarbamoyl)-4H-1,2,4-triazol-4-yl)benzoyl)piperazin-1-yl)-2,6-dimethylphenyl (2-(2,6-dioxopiperidin-3-yl)-1,3-dioxoisoindolin-4-yl)carbamate] | 70.4 | – |
| CCNC(=O)c1nnc(-c2cc(C(C)C)c(O)cc2O)n1-c1ccc(C(=O)N2CCN(c3ccc(OC(=O)Nc4cccc5c4C(=O)N(C4CCC(=O)NC4=O)C5=O)c(OC)c3)CC2)cc1 (centres unmarked) [SDC-TRAP-0398, 4-(4-(4-(3-(2,4-dihydroxy-5-isopropylphenyl)-5-(ethylcarbamoyl)-4H-1,2,4-triazol-4-yl)benzoyl)piperazin-1-yl)-2-methoxyphenyl (2-(2,6-dioxopiperidin-3-yl)-1,3-dioxoisoindolin-4-yl)carbamate] | 1.40 | – |
| CCc1c2c(nc3ccc(OC(=O)N4CCN(S(=O)(=O)N5CCC(CCn6ccc7cc(-n8c(O)nnc8-c8cc(C(C)C)c(O)cc8O)ccc76)CC5)CC4)cc13)-c1cc3c(c(=O)n1C2)COC(=O)C3(O)CC (centres unmarked) [SDC-TRAP-0361, 4,11-diethyl-4-hydroxy-3,14-dioxo-3,4,12,14-tetrahydro-1H-pyrano[3′,4′: 6,7]indolizino[1,2-b]quinolin-9-yl 4-((4-(2-(5-(3-(2,4-dihydroxy-5-isopropylphenyl)-5-hydroxy-4H-1,2,4-triazol-4-yl)-1H-indol-1-yl)ethyl)piperidin-1-yl)sulfonyl)piperazine-1-carboxylate] | 25.6 | – |
| CCNC(=O)c1nnc(-c2cc(C(C)C)c(O)cc2O)n1-c1ccc2c(c1)CN(S(=O)(=O)C1CCN(C(=O)Oc3ccc4nc5c(c(CC)c4c3)Cn3c-5cc4c(c3=O)COC(=O)C4(O)CC)CC1)C2 (centres unmarked) [SDC-TRAP-0391, 4,11-diethyl-4-hydroxy-3,14-dioxo-3,4,12,14-tetrahydro-1H-pyrano[3′,4:6,7]indolizino[1,2-b]quinolin-9-yl 4-((5-(3-(2,4-dihydroxy-5-isopropylphenyl)-5-(ethylcarbamoyl)-4H-1,2,4-triazol-4-yl)isoindolin-2-yl)sulfonyl)piperidine-1-carboxylate] | 15.2 | – |
| CCc1c2c(nc3ccc(OC(=O)N(C)CC(=O)N4CCC(CCn5ccc6cc(-n7c(O)nnc7-c7cc(C(C)C)c(O)cc7O)ccc65)CC4)cc13)-c1cc3c(c(=O)n1C2)COC(=O)[C@]3(O)CC [SDC-TRAP-0337, (S)-4,11-diethyl-4-hydroxy-3,14-dioxo-3,4,12,14-tetrahydro-1H-pyrano[3′,4′: 6,7]indolizino[1,2-b]quinolin-9-yl (2-(4-(2-(5-(3-(2,4-dihydroxy-5-isopropylphenyl)-5-hydroxy-4H-1,2,4-triazol-4-yl)-1H-indol-1-yl)ethyl)piperidin-1-yl)-2-oxoethyl)(methyl)carbamate] | 77.3 | – |
| CCc1c2c(nc3ccc(OC(=O)N4CCC(N(C)CCNC(=O)c5nnc(-c6cc(C(C)C)c(O)cc6O)n5-c5cccnc5)CC4)cc13)-c1cc3c(c(=O)n1C2)COC(=O)C3(O)CC (centres unmarked) [SDC-TRAP-0358] | 41.0 | – |
| CCNC(=O)c1noc(-c2cc(C(C)C)c(O)cc2O)c1-c1ccc(CN2CCN(C(=O)Oc3ccc4nc5c(c(CC)c4c3)Cn3c-5cc4c(c3=O)COC(=O)C4(O)CC)CC2)cc1 (centres unmarked) [SDC-TRAP-0236, 4,11-diethyl-4-hydroxy-3,14-dioxo-3,4,12,14-tetrahydro-1H-pyrano[3′,4′:6,7]indolizino[1,2-b]quinolin-9-yl 4-(4-(5-(2,4-dihydroxy-5-isopropylphenyl)-3-(ethylcarbamoyl)isoxazol-4-yl)benzyl)piperazine-1-carboxylate] | 60.8 | – |
| CCc1c2c(nc3ccc(O)cc13)-c1cc3c(c(=O)n1C2)COC(=O)C3(CC)OC(=O)N(C)Cc1ccc(OC(=O)N2CCN(Cc3ccc(-n4c(O)nnc4-c4cc(C(C)C)c(O)cc4O)cc3)CC2)cc1 (centres unmarked) [SDC-TRAP-0356, 4-(((((4,11-diethyl-9-hydroxy-3,14-dioxo-3,4,12,14-tetrahydro-1H-pyrano[3′,4′:6,7]indolizino[1,2-b]quinolin-4-yl)oxy)carbonyl)(methyl)amino)methyl)phenyl 4-(4-(3-(2,4-dihydroxy-5-isopropylphenyl)-5-hydroxy-4H-1,2,4-triazol-4-yl)benzyl)piperazine-1-carboxylate] | 70.9 | – |
| CCc1c2c(nc3ccc(OC(=O)N4CCC(N5CCC(CCn6ccc7ccc(-n8c(O)nnc8-c8cc(C(C)C)c(O)cc8O)cc76)CC5)CC4)cc13)-c1cc3c(c(=O)n1C2)COC(=O)C3(O)CC (centres unmarked) [SDC-TRAP-0353, 4,11-diethyl-4-hydroxy-3,14-dioxo-3,4,12,14-tetrahydro-1H-pyrano[3′,4′:6,7]indolizino[1,2-b]quinolin-9-yl 4-(2-(6-(3-(2,4-dihydroxy-5-isopropylphenyl)-5-hydroxy-4H-1,2,4-triazol-4-yl)-1H-indol-1-yl)ethyl)-[1,4′-bipiperidine]-1′-carboxylate] | 22.5 | – |
| CCc1c2c(nc3ccc(O)cc13)-c1cc3c(c(=O)n1C2)COC(=O)C3(CC)OC(=O)N1CCN(C(=O)C2CCN(c3ccc(-n4c(O)nnc4-c4cc(C(C)C)c(O)cc4O)cc3)CC2)CC1 (centres unmarked) | 108 | – |
| CCNC(=O)c1nnc(-c2cc(C(C)C)c(O)cc2O)n1-c1ccc(OC2CCN(C(=O)C3CCCCN3C(=O)Oc3ccc4nc5c(c(CC)c4c3)Cn3c-5cc4c(c3=O)COC(=O)[C@]4(O)CC)CC2)cc1 (stereo partly drawn) [SDC-TRAP-0216, (S)-4,11-diethyl-4-hydroxy-3,14-dioxo-3,4,12,14-tetrahydro-1H-pyrano[3′,4′:6,7]indolizino[1,2-b]quinolin-9-yl 2-(4-(4-(3-(2,4-dihydroxy-5-isopropylphenyl)-5-(ethylcarbamoyl)-4H-1,2,4-triazol-4-yl)phenoxy)piperidine-1-carbonyl)piperidine-1-carboxylate] | – | 67.7 |
